Experimental findings from patent US7820623B2 (priority 2006, dated 2010) are described below.

Assay [1] deals with thapsigargin-induced IFN-g production in human whole blood. It counts as cell-based.
Assay [2] has as its system thapsigargin-induced IL-2 production in human whole blood.
Where [3] appears, read: read-out: Analogue Activity (IC50) WB/IFNg.
[4] abbreviates: read-out: Analogue Activity (IC50) WB/IL-2.

pIC50: −log10 of the molar value. Read-outs that look alike come from different tables or passages of the source. Bridge positions count the residues as written; N and C are the ends. Square brackets hold non-standard residues; d marks the D form. Peptide text beside a SMILES is read from it. 1Nal = N[C@@H](Cc1cccc2ccccc12)C(=O)O

For `CC[C@H](C)[C@@H]1NC(=O)[C@H](CCCCN)NC(=O)[C@@H](NC(=O)[C@H](CCCCN)NC(=O)[C@@H](NC(=O)[C@H](CC(N)=O)NC(=O)[C@@H](NC(=O)[C@@H](NC(=O)[C@@H](NC(=O)CN)C(C)C)[C@@H](C)CC)[C@@H](C)CC)C(C)C)CSSC[C@@H]2NC(=O)[C@H](Cc3cccc4ccccc34)NC(=O)CNC(=O)[C@H](Cc3ccccc3)NC(=O)[C@H](CCCNC(=N)N)NC(=O)[C@H](CCSC)NC(=O)CNC(=O)[C@H](C)NC(=O)[C@H](CCCCN)NC(=O)[C@H](CCCCN)NC(=O)[C@@H]3CSSC[C@@H](C(=O)N[C@H](C(=O)N4CCC[C@H]4C(=O)N[C@@H](CCCCN)C(=O)O)[C@@H](C)O)NC(=O)[C@H](Cc4c[nH]cn4)NC(=O)[C@H](CSSC[C@H](NC(=O)[C@H](CCC(N)=O)NC(=O)[C@H](CCCNC(=N)N)NC(=O)[C@H](CO)NC1=O)C(=O)N[C@@H](CC(C)C)C(=O)N[C@@H](CCC(=O)O)C(=O)N1CCC[C@H]1C(=O)N3)NC(=O)[C@H](CCCCN)NC(=O)CNC(=O)[C@H](CC(N)=O)NC(=O)[C@H](CCSC)NC2=O` [K27Nal] (H-GVIINVKCKISRQCLEPCKKAGMRFG[1Nal]CMNGKCHCTPK-OH; disulfide 8-28, 14-33, 18-35), the values for the pIC50 in assay [1] (setting [3]) and in assay [2] (setting [4]) were 7.57 and 7.82, respectively.

On to `CC[C@H](C)[C@@H]1NC(=O)[C@H](CCCCN)NC(=O)[C@@H](NC(=O)[C@H](CCCCN)NC(=O)[C@@H](NC(=O)[C@H](CC(N)=O)NC(=O)[C@@H](NC(=O)[C@@H](NC(=O)[C@@H](NC(=O)CN)C(C)C)[C@@H](C)CC)[C@@H](C)CC)C(C)C)CSSC[C@@H]2NC(=O)[C@H](CCCCN)NC(=O)CNC(=O)[C@H](Cc3ccccc3)NC(=O)[C@H](CCCNC(=N)N)NC(=O)[C@H](CCSC)NC(=O)CNC(=O)[C@H](C)NC(=O)[C@H](CCCCN)NC(=O)[C@H](CCCCN)NC(=O)[C@@H]3CSSC[C@@H](C(=O)N[C@H](C(=O)N4CCC[C@H]4C(=O)N[C@@H](CCCCN)C(=O)O)[C@@H](C)O)NC(=O)[C@H](Cc4c[nH]cn4)NC(=O)[C@H](CSSC[C@H](NC(=O)[C@H](CCC(=O)O)NC(=O)[C@H](CCCNC(=N)N)NC(=O)[C@H](CO)NC1=O)C(=O)N[C@@H](CC(C)C)C(=O)N[C@@H](CCC(=O)O)C(=O)N1CCC[C@H]1C(=O)N3)NC(=O)[C@H](CCCCN)NC(=O)CNC(=O)[C@H](CC(N)=O)NC(=O)[C@H](CCSC)NC2=O` [Q13E] (H-GVIINVKCKISRECLEPCKKAGMRFGKCMNGKCHCTPK-OH; disulfide 8-28, 14-33, 18-35), for which the pIC50 was 9.10 in assay [1] (setting [3]) and 8.97 in assay [2] (setting [4]).

`CC[C@H](C)[C@@H]1NC(=O)[C@H](CCCCN)NC(=O)[C@@H](NC(=O)[C@H](CCCCN)NC(=O)[C@@H](NC(=O)[C@H](CC(N)=O)NC(=O)[C@H](Cc2cccc3ccccc23)NC(=O)[C@@H](NC(=O)[C@@H](NC(=O)CN)C(C)C)[C@@H](C)CC)C(C)C)CSSC[C@@H]2NC(=O)[C@H](CCCCN)NC(=O)CNC(=O)[C@H](Cc3ccccc3)NC(=O)[C@H](CCCNC(=N)N)NC(=O)[C@H](CCSC)NC(=O)CNC(=O)[C@H](C)NC(=O)[C@H](CCCCN)NC(=O)[C@H](CCCCN)NC(=O)[C@@H]3CSSC[C@@H](C(=O)N[C@H](C(=O)N4CCC[C@H]4C(=O)N[C@@H](CCCCN)C(=O)O)[C@@H](C)O)NC(=O)[C@H](Cc4c[nH]cn4)NC(=O)[C@H](CSSC[C@H](NC(=O)[C@H](CCC(N)=O)NC(=O)[C@H](CCCNC(=N)N)NC(=O)[C@H](CO)NC1=O)C(=O)N[C@@H](CC(C)C)C(=O)N[C@@H](CCC(=O)O)C(=O)N1CCC[C@H]1C(=O)N3)NC(=O)[C@H](CCCCN)NC(=O)CNC(=O)[C@H](CC(N)=O)NC(=O)[C@H](CCSC)NC2=O` [I4Nal] (H-GVI[1Nal]NVKCKISRQCLEPCKKAGMRFGKCMNGKCHCTPK-OH; disulfide 8-28, 14-33, 18-35): the figures for the pIC50 in assay [1] (setting [3]) and in assay [2] (setting [4]) were 8.99 and 8.96, respectively.

For `CC[C@H](C)[C@@H]1NC(=O)[C@H](CCCCN)NC(=O)[C@@H](NC(=O)[C@H](CCCCN)NC(=O)[C@@H](NC(=O)[C@H](CC(N)=O)NC(=O)[C@@H](NC(=O)[C@@H](NC(=O)[C@@H](NC(=O)CN)C(C)C)[C@@H](C)CC)[C@@H](C)CC)C(C)C)CSSC[C@@H]2NC(=O)[C@H](CCCCN)NC(=O)CNC(=O)[C@H](Cc3ccccc3)NC(=O)[C@H](CCCNC(=N)N)NC(=O)[C@H](CCSC)NC(=O)CNC(=O)[C@H](CCC(=O)O)NC(=O)[C@H](CCCCN)NC(=O)[C@H](CCCCN)NC(=O)[C@@H]3CSSC[C@@H](C(=O)N[C@H](C(=O)N4CCC[C@H]4C(=O)N[C@@H](CCCCN)C(=O)O)[C@@H](C)O)NC(=O)[C@H](Cc4c[nH]cn4)NC(=O)[C@H](CSSC[C@H](NC(=O)[C@H](CCC(N)=O)NC(=O)[C@H](CCCNC(=N)N)NC(=O)[C@H](CO)NC1=O)C(=O)N[C@@H](CC(C)C)C(=O)N[C@@H](CCC(=O)O)C(=O)N1CCC[C@H]1C(=O)N3)NC(=O)[C@H](CCCCN)NC(=O)CNC(=O)[C@H](CC(N)=O)NC(=O)[C@H](CCSC)NC2=O` [A21E] (H-GVIINVKCKISRQCLEPCKKEGMRFGKCMNGKCHCTPK-OH; disulfide 8-28, 14-33, 18-35), the pIC50 in assay [1] (setting [3]) is 9.86; in assay [2] (setting [4]), 9.93.

Regarding `CC[C@H](C)[C@@H]1NC(=O)[C@H](CCCCN)NC(=O)[C@@H](NC(=O)[C@H](CCCCN)NC(=O)[C@@H](NC(=O)[C@H](CC(N)=O)NC(=O)[C@@H](NC(=O)[C@@H](NC(=O)[C@@H](NC(=O)CN)C(C)C)[C@@H](C)CC)[C@@H](C)CC)C(C)C)CSSC[C@@H]2NC(=O)[C@H](CCCCN)NC(=O)CNC(=O)[C@H](Cc3ccccc3)NC(=O)[C@H](CCCNC(=N)N)NC(=O)[C@H](CCSC)NC(=O)CNC(=O)[C@H](C)NC(=O)[C@H](CCCCN)NC(=O)[C@H](CCCCN)NC(=O)[C@@H]3CSSC[C@@H](C(=O)N[C@H](C(=O)N4CCC[C@H]4C(=O)N[C@@H](CCCCN)C(=O)O)[C@@H](C)O)NC(=O)[C@H](Cc4c[nH]cn4)NC(=O)[C@H](CSSC[C@H](NC(=O)[C@H](CCC(N)=O)NC(=O)[C@H](CCCNC(=N)N)NC(=O)[C@H](CO)NC1=O)C(=O)N[C@@H](C)C(=O)N[C@@H](CCC(=O)O)C(=O)N1CCC[C@H]1C(=O)N3)NC(=O)[C@H](CCCCN)NC(=O)CNC(=O)[C@H](CC(N)=O)NC(=O)[C@H](CCSC)NC2=O` [L15A] (H-GVIINVKCKISRQCAEPCKKAGMRFGKCMNGKCHCTPK-OH; disulfide 8-28, 14-33, 18-35), the pIC50 in assay [1] (setting [3]) and in assay [2] (setting [4]) was 9.97 throughout.

In the case of “E16K, K20D, des36-38 (GVIINVKCKISRQCLKPCKDAGMRFGKCMNGKCHC)”, the pIC50 in assay [1] (read-out: WB/IFNg (IC50)) is 8.16; in assay [2] (read-out: WB/IL-2 (IC50)) it was 8.40.

On to `CC[C@H](C)[C@@H]1NC(=O)[C@H](CCCCN)NC(=O)[C@@H](NC(=O)[C@H](CCCCN)NC(=O)[C@@H](NC(=O)[C@H](CC(N)=O)NC(=O)[C@H](C)NC(=O)[C@@H](NC(=O)[C@@H](NC(=O)CN)C(C)C)[C@@H](C)CC)C(C)C)CSSC[C@@H]2NC(=O)[C@H](CCCCN)NC(=O)CNC(=O)[C@H](Cc3ccccc3)NC(=O)[C@H](CCCNC(=N)N)NC(=O)[C@H](CCSC)NC(=O)CNC(=O)[C@H](C)NC(=O)[C@H](CCCCN)NC(=O)[C@H](CCCCN)NC(=O)[C@@H]3CSSC[C@@H](C(=O)N[C@H](C(=O)N4CCC[C@H]4C(=O)N[C@@H](CCCCN)C(=O)O)[C@@H](C)O)NC(=O)[C@H](Cc4c[nH]cn4)NC(=O)[C@H](CSSC[C@H](NC(=O)[C@H](CCC(N)=O)NC(=O)[C@H](CCCNC(=N)N)NC(=O)[C@H](CO)NC1=O)C(=O)N[C@@H](CC(C)C)C(=O)N[C@@H](CCC(=O)O)C(=O)N1CCC[C@H]1C(=O)N3)NC(=O)[C@H](CCCCN)NC(=O)CNC(=O)[C@H](CC(N)=O)NC(=O)[C@H](CCSC)NC2=O` [I4A] (H-GVIANVKCKISRQCLEPCKKAGMRFGKCMNGKCHCTPK-OH; disulfide 8-28, 14-33, 18-35), for which the pIC50 is 10.06 in assay [1] (setting [3]) and 9.96 in assay [2] (setting [4]).

As for `CC[C@H](C)[C@H](NC(=O)[C@@H](NC(=O)CN)C(C)C)C(=O)N[C@H](C(=O)N[C@@H](CC(N)=O)C(=O)N[C@H](C(=O)N[C@@H](CCCCN)C(=O)N[C@H]1CSSC[C@@H]2NC(=O)[C@H](CCCCN)NC(=O)CNC(=O)[C@H](Cc3ccccc3)NC(=O)[C@H](CCCNC(=N)N)NC(=O)[C@H](CCSC)NC(=O)CNC(=O)[C@H](C)NC(=O)[C@H](CCCCN)NC(=O)[C@H](CCCCN)NC(=O)[C@@H]3CSSC[C@@H](C(=O)N[C@H](C(=O)N4CCC[C@H]4C(=O)N[C@@H](CCCCN)C(=O)O)[C@@H](C)O)NC(=O)[C@H](Cc4c[nH]cn4)NC(=O)[C@H](CSSC[C@H](NC(=O)[C@H](CCC(N)=O)NC(=O)[C@H](CCCNC(=N)N)NC(=O)[C@H](CO)NC(=O)[C@H](CCCNC(=N)N)NC(=O)[C@H](CCCCN)NC1=O)C(=O)N[C@@H](CC(C)C)C(=O)N[C@@H](CCC(=O)O)C(=O)N1CCC[C@H]1C(=O)N3)NC(=O)[C@H](CCCCN)NC(=O)CNC(=O)[C@H](CC(N)=O)NC(=O)[C@H](CCSC)NC2=O)C(C)C)[C@@H](C)CC` [I10R] (H-GVIINVKCKRSRQCLEPCKKAGMRFGKCMNGKCHCTPK-OH; disulfide 8-28, 14-33, 18-35), the results for the pIC50 in assay [1] (setting [3]) and in assay [2] (setting [4]) were 9.32 and 9.51, respectively.

Take “GVIINVKCKISRQCLEPCKKAGMRFGKCMNGKCACTPK [Ala-34 (SEQ ID No: 1428)]”: the pIC50 was 10.24 in assay [1] (read-out: Average IC50 IFNg) and 10.14 in assay [2] (read-out: Average IC50 IL-2).

On to `CC[C@H](C)[C@@H]1NC(=O)[C@H](CCCCN)NC(=O)[C@@H](NC(=O)[C@H](CCCCN)NC(=O)[C@@H](NC(=O)[C@H](CC(N)=O)NC(=O)[C@@H](NC(=O)[C@@H](NC(=O)[C@H](Cc2cccc3ccccc23)NC(=O)CN)[C@@H](C)CC)[C@@H](C)CC)C(C)C)CSSC[C@@H]2NC(=O)[C@H](CCCCN)NC(=O)CNC(=O)[C@H](Cc3ccccc3)NC(=O)[C@H](CCCNC(=N)N)NC(=O)[C@H](CCSC)NC(=O)CNC(=O)[C@H](C)NC(=O)[C@H](CCCCN)NC(=O)[C@H](CCCCN)NC(=O)[C@@H]3CSSC[C@@H](C(=O)N[C@H](C(=O)N4CCC[C@H]4C(=O)N[C@@H](CCCCN)C(=O)O)[C@@H](C)O)NC(=O)[C@H](Cc4c[nH]cn4)NC(=O)[C@H](CSSC[C@H](NC(=O)[C@H](CCC(N)=O)NC(=O)[C@H](CCCNC(=N)N)NC(=O)[C@H](CO)NC1=O)C(=O)N[C@@H](CC(C)C)C(=O)N[C@@H](CCC(=O)O)C(=O)N1CCC[C@H]1C(=O)N3)NC(=O)[C@H](CCCCN)NC(=O)CNC(=O)[C@H](CC(N)=O)NC(=O)[C@H](CCSC)NC2=O` [V2Nal] (H-G[1Nal]IINVKCKISRQCLEPCKKAGMRFGKCMNGKCHCTPK-OH; disulfide 8-28, 14-33, 18-35), for which the pIC50 in assay [1] (setting [3]) is 9.28; in assay [2] (setting [4]), 9.12.
